Measured values as given in article PMC11984388, “A brain-accessible peptide modulates stroke inflammatory response and neurotoxicity by targeting BDNF-receptor TrkB-T1 specific interactome” (Theranostics, 2025).

Experiments:
[1] = system: GFAP+/C3+ cells; experiment: Immunohistochemistry of reactive astrocytes in ischemic brain; format: in vivo, mice; conditions: 3 nmol/g 1 h after damage; early after injury (5 h); versus TMyc
Description: (§1) The brains of animals injected one hour af ter the initiation of the photothrombotic damage with vehicle (saline), TMyc or TT1Ct (3 nmol/g) were process ed and cryoprote cted as before indicated. The duration of damage before sa cri f i ce was 5 h (male and female) or 24 h (male).
(§2) Coronal froze n se ctions were incubated with blocking solution as des cribe d in flota tion for 1 h at room temperature and then overnight with prima ry antibodies diluted in 4% goat se rum and 0.3% Triton X-100 in PBS at 4°C. After was hing, slides were incubated 1 h with Alexa Fluor 546- conjugated goat anti-rabbit or AlexaFluor 647- conjugated goat anti-mouse se condary antibodies to visua liz e the prima ry antibodies and DAPI (5 μg/ml). Only for Iba1 sta ining, blocking solution was 2.5% BS A, 5% goat se rum, 0.5% Triton X-100 in PBS, and se ctions were incubated with prima ry antibody 24 h at RT follow ed by was hing and Alexa Fluor 546-conjugated goat anti-rabbit and DAPI incubation for 1 h. Sections were then was hed in PBS, mounted on slides , dried for 15 min at 37 °C on a hot plate, or air dried overnight and then cover slipped with DPX or Prolong Diamond. Ce ll Obs erve d images were obtained with Zeiss microscope Observe r.Z1 using a 10x Plan-Apochromatic objective. […]

[2] = system: MEF2D; experiment: Western blot in excitotoxicity; format: cell-based, rat; conditions: peptide 15 µM 30 min, NMDA 30-120 min; normalized to NSE; differences not statistically significant compared to TMyc; n = 5
Description: (§3) amounts were combined with streptavidin-agarose beads previously was hed with NP-40 lysis buffer and incubated at room temperature for 1.5 h with agitation. Sedimented beads were was hed 3 times with the NP-40 lysis buffer to remove poss ible non-spe cifica lly bounded proteins, and peptides and their interacting proteins were released by incubation at 50°C for 40 min in RI P A modifie d buffer (50 mM Tris HCl pH 8.0, 150 mM NaC l, 1% sodium deoxycholate , 1% NP-40) combined with protease and phospha tase inhibitors as before .
(§4) Prote omic analysis of Bio-sT T1Ct-inte racting proteins
(§5) Prote omic analys is was performed in Pros taR (1.34.6) software tool, using the protocol for protein-level analys is. Prote omic abundanc es from 4 independent experiments were log-transforme d and filtered follow ing quality parameters: proteins present in at least >50% of one of the conditions and identifie d by at least 2 unique peptides . After, data was normalized by LOESS (locally es tima te d sc atterplot smoothing, k=0.7), and POV (par tially obse rved values ) and ME C (miss ing in entire condition values ) imputations were made using, respec tive ly, KNN (k-neares t-neighbour k=10) and det.quantile (quantile imputation using quantile = 2,5).
(§6) Differential analys is was performed using limma (3.16). Multiple comparison p-values where calibrated using sl i m algorithm and the FDR (fals e disc overy rate) is indicated for eac h comparison. For PCA (principal component analys is ), filte red, normalized and imputed data was use d corre cted for batch ef fe ct using removeBatc hEffe ct {limma} function. […]
(§7) dry milk solution in Tris Buffere d Saline-Tween (TBS-T, 20 mM Tris HCl pH 7.5, 137 mM NaC l, 0.05% Tween-20) and incubated overnight at 4°C with prima ry antibodies . […] To conclude, immunore activity was detecte d using Clar ity Wes ter n ECL Blotting Substrate (BioRad) and band intensity was quantified by dens itome tric analys is (Photos hop, Adobe). […] Multiple independent experiments were car r ied out and quantitated as detailed in the figure legends . […]

[3] = system: TrkB-T1; experiment: Western blot in excitotoxicity; format: cell-based, rat; conditions: peptide 15 µM 30 min, NMDA 30-120 min; compared to TMyc
Description: as §3, §4, §5, §6, §7

[4] = system: pCREB; experiment: Western blot in excitotoxicity; format: cell-based, rat; conditions: peptide 15 µM 30 min, NMDA 30-120 min; normalized to NSE; differences not statistically significant compared to TMyc; n = 5
Description: as §3, §4, §5, §6, §7

[5] = Immunoglobulin infiltration in ischemic brain; format: in vivo; conditions: male mice, 24 h after insult; versus control peptide (Fig S7)
Description: as §1, §2

Ac-YGRKKRRQRRRPPFVLFHKIPLDG-NH2 [TT1Ct]
Effect on GFAP+/C3+ cells at the infarct boundary [1]: strong decrease | Effect on MEF2D levels [2]: partially preserved | Effect on TrkB-T1 regulation [3]: did not have significant effects | Effect on pCREB levels [4]: partially preserved | Immunoglobulin infiltration [5]: reduced immunoglobulin infiltration
